Experimental findings from patent publication US20240316047A1, “INHIBITORS OF RNA HELICASE DHX9 AND USES THEREOF” (ACCENT THERAPEUTICS, INC., priority 2022, published 2024) are described below.

The target of this assay is Human recombinant DHX9 protein (Homo sapiens (Human), UniProt Q08211). In words: DHX9 ATPase assay (ADP-Glo). As to conditions: for IC50: read-out: DHX9 Biochemical Inflection Point. Format: biochemical. In general terms: ADP-Glo first removes unused ATP, then detects ADP through luciferase.
Chain of Human recombinant DHX9 protein (Q08211 whole entry): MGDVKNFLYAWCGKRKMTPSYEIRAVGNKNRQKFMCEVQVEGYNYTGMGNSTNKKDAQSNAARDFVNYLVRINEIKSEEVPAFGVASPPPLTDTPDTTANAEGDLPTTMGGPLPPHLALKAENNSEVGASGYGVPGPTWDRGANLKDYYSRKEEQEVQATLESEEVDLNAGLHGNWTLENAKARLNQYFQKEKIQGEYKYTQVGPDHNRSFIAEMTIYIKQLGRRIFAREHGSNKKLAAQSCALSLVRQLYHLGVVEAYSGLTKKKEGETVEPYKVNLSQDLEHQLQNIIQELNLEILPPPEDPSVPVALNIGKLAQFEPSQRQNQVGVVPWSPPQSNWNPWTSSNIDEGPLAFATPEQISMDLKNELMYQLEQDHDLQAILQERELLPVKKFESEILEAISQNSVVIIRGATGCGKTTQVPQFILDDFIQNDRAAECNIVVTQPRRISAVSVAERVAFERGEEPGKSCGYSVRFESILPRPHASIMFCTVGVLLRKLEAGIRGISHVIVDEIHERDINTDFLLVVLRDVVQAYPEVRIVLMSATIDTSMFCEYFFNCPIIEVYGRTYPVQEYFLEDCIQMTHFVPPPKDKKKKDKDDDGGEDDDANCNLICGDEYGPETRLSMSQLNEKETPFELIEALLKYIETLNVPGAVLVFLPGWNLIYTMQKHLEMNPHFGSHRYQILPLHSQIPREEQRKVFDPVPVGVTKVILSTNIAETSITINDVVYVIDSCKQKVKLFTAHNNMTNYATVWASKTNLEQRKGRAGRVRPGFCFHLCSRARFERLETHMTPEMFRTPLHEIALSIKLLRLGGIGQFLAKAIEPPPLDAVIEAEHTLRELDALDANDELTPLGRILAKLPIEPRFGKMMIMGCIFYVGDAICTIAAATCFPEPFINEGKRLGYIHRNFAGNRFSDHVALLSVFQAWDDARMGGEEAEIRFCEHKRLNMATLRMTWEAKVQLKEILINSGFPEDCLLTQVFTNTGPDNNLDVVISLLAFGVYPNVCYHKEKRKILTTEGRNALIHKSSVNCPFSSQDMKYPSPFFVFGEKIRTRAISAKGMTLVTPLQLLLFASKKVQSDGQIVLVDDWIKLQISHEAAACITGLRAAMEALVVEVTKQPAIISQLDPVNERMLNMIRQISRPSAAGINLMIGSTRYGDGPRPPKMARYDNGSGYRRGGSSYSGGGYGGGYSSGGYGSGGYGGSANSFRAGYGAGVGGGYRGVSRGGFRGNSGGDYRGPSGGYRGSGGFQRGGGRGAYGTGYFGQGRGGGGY

Take `Cc1cncc2cc(C(=O)Nc3cc(Cl)cc(NS(C)(=O)=O)c3)sc12` [Example 290]: the “DHX9 Biochemical Max Inhibition” value came to 59.7% and the IC50 amounted to 5590 nM. Taken in the same sequence, the figures for `COc1cc2cc(C(=O)Nc3cc(Cl)cc(NS(C)(=O)=O)c3)sc2cc1OC` [Example 291] were 59.7% and 144 nM. Taken in the same sequence, the figures for `CS(=O)(=O)Nc1cc(Cl)cc(NC(=O)c2cc3cccnn3c2)c1` [Example 292] were 68.5% and 76 nM. Taken in the same sequence, the figures for `CS(=O)(=O)Nc1cc(Cl)cc(NC(=O)c2cc3ccc(Cl)cc3s2)c1` [Example 293] were 55% and 87.2 nM. Consider `CS(=O)(=O)Nc1cc(Cl)cc(NC(=O)c2cc3ccc(F)cc3s2)c1` [Example 294], for which the “DHX9 Biochemical Max Inhibition” value came out at 59% and the IC50 worked out at 1610 nM. Taken in the same sequence, the figures for `CS(=O)(=O)Nc1cc(Cl)cc(NC(=O)c2cc3cc(F)ccc3s2)c1` [Example 295] were 63.8% and 307 nM. Regarding `CS(=O)(=O)Nc1cc(Cl)cc(NC(=O)c2cc3c(F)cccc3s2)c1` [Example 296], the “DHX9 Biochemical Max Inhibition” value worked out at 69.9% and the IC50 was determined as 125 nM. For the compound `CS(=O)(=O)Nc1cc(Cl)cc(NC(=O)c2cc3cccc(F)c3s2)c1` [Example 297], the “DHX9 Biochemical Max Inhibition” value worked out at 57% and the IC50 stood at 997 nM. Taken in the same sequence, the figures for `CS(=O)(=O)Nc1cc(Cl)cc(NC(=O)c2cc3cc(Cl)ccc3s2)c1` [Example 298] were 58.8% and 4210 nM. Taken in the same sequence, the figures for `CS(=O)(=O)Nc1cc(Cl)cc(NC(=O)c2cc3ccc(Cl)cn3c2)c1` [Example 299] were 56.7% and 335 nM.

For the compound `Cc1ccc2cc(C(=O)Nc3cc(Cl)cc(NS(C)(=O)=O)c3)cn2c1` [Example 300], the “DHX9 Biochemical Max Inhibition” value is recorded as 58.5% and the IC50 came out at 132 nM. Taken in the same sequence, the figures for `CS(=O)(=O)Nc1cc(Cl)cc(NC(=O)c2cc3c(=O)[nH]ccn3c2)c1` [Example 301] were 69.5% and 37.7 nM. For `CS(=O)(=O)Nc1cc(Cl)cc(NC(=O)c2cc3c(C(F)(F)F)cccn3c2)c1` [Example 302] the same measures were 54.6% and 640 nM. With `COc1cccc2cc(C(=O)Nc3cc(Cl)cc(NS(C)(=O)=O)c3)sc12` [Example 303], the “DHX9 Biochemical Max Inhibition” value is 57.2% and the IC50 was 4020 nM.

Take `Cc1cccc2cc(C(=O)Nc3cc(Cl)cc(NS(C)(=O)=O)c3)cn12` [Example 304]: the “DHX9 Biochemical Max Inhibition” value is reported as 59.1% and the IC50 came to 399 nM. Taken in the same sequence, the figures for `CS(=O)(=O)Nc1cc(Cl)cc(NC(=O)c2cc3c(F)cccn3c2)c1` [Example 305] were 63.8% and 95.3 nM. Taken in the same sequence, the figures for `CN1CCC(n2cc(C(=O)Nc3cc(Cl)cc(NS(C)(=O)=O)c3)cn2)CC1=O` (centres unmarked) [Example 307] were 70.4% and 143 nM. As for `CS(=O)(=O)Nc1cc(Cl)cc(NC(=O)c2cnn(CCc3ccccc3)c2)c1` [Example 308], the “DHX9 Biochemical Max Inhibition” value is 60.6% and the IC50 is 375 nM.

In the case of `CS(=O)(=O)Nc1cc(Cl)cc(NC(=O)c2cnn(C3CCCC3)c2)c1` [Example 309], the “DHX9 Biochemical Max Inhibition” value turned out to be 60.8% and the IC50 worked out at 162 nM. Taken in the same sequence, the figures for `CC(=O)NC1CC2(C1)CC(n1cc(C(=O)Nc3cc(Cl)cc(NS(C)(=O)=O)c3)cn1)C2` (centres unmarked) [Example 310] were 70.3% and 102 nM. On to `CN1CC2(CC(n3cc(C(=O)Nc4cc(Cl)cc(NS(C)(=O)=O)c4)cn3)C2)C1` [Example 311], for which the “DHX9 Biochemical Max Inhibition” value turned out to be 77.7% and the IC50 worked out at 38.5 nM. As for `CS(=O)(=O)Nc1cc(Cl)cc(NC(=O)c2cnn(C3CC4(C3)CN(CC(F)(F)F)C4)c2)c1` [Example 312], the “DHX9 Biochemical Max Inhibition” value was 69.2% and the IC50 worked out at 220 nM. For `CC(=O)N1CC2(CC(n3cc(C(=O)Nc4cc(Cl)cc(NS(C)(=O)=O)c4)cn3)C2)C1` [Example 313] the same measures were 63.6% and 147 nM. For `CC1(C)CC(n2cc(C(=O)Nc3cc(Cl)cc(NS(C)(=O)=O)c3)cn2)CCN1` (centres unmarked) [Example 315] the same measures were 66.9% and 75.3 nM.

Regarding `CS(=O)(=O)Nc1cc(Cl)cc(NC(=O)c2cnn(C3CCN(CC(F)(F)F)CC3)c2)c1` [Example 316], the “DHX9 Biochemical Max Inhibition” value worked out at 66.6% and the IC50 came to 205 nM. For `CC(=O)N1CCC(n2cc(C(=O)Nc3cc(Cl)cc(NS(C)(=O)=O)c3)cn2)CC1` [Example 317] the same measures were 63.8% and 272 nM. Consider `CC(C)(C)OC(=O)NC1CC2(C1)CC(n1cc(C(=O)Nc3cc(Cl)cc(NS(C)(=O)=O)c3)cn1)C2` (centres unmarked) [Example 318], for which the “DHX9 Biochemical Max Inhibition” value is reported as 64.4%. Regarding `CS(=O)(=O)Nc1cc(Cl)cc(NC(=O)c2cnn(C3CC4(CC(N)C4)C3)c2)c1` (centres unmarked) [Example 319], the “DHX9 Biochemical Max Inhibition” value was 70.1% and the IC50 worked out at 57.7 nM. Turning to `Cc1cc(C(=O)Nc2cc(Cl)cc(NS(C)(=O)=O)c2)cn1-c1ncc(N2CCOCC2)cc1F` [Example 320], the “DHX9 Biochemical Max Inhibition” value is given as 72.2% and the IC50 was 10.5 nM. Taken in the same sequence, the figures for `COc1cccc2sc(C(=O)Nc3cc(Cl)cc(NS(C)(=O)=O)c3)cc12` [Example 321] were 79.2% and 13.5 nM. Take `Cc1cn2cc(C(=O)Nc3cc(Cl)cc(NS(C)(=O)=O)c3)cc2c(C)n1` [Example 322]: the “DHX9 Biochemical Max Inhibition” value is recorded as 65.6% and the IC50 turned out to be 215 nM.

Turning to `CS(=O)(=O)Nc1cc(Cl)cc(NC(=O)c2cc3c(C(F)(F)F)cccc3s2)c1` [Example 323], the “DHX9 Biochemical Max Inhibition” value worked out at 58.2% and the IC50 was determined as 282 nM. Taken in the same sequence, the figures for `CS(=O)(=O)Nc1cc(Cl)cc(NC(=O)c2cc3c(F)c(F)ccc3s2)c1` [Example 324] were 63.1% and 164 nM. Taken in the same sequence, the figures for `CS(=O)(=O)Nc1cc(Cl)cc(NC(=O)c2cc3c(F)ccc(F)c3s2)c1` [Example 325] were 63.9% and 591 nM.

As to `CS(=O)(=O)Nc1cc(Cl)cc(NC(=O)c2cc3cc(C(F)(F)F)ccc3s2)c1` [Example 326], the “DHX9 Biochemical Max Inhibition” value came to 64.5% and the IC50 is 8110 nM. Taken in the same sequence, the figures for `COc1ccc2cc(C(=O)Nc3cc(Cl)cc(NS(C)(=O)=O)c3)sc2c1` [Example 327] were 63.3% and 264 nM. For `Cc1cc(C)c2cc(C(=O)Nc3cc(Cl)cc(NS(C)(=O)=O)c3)cn2c1` [Example 328] the same measures were 67.6% and 422 nM. Turning to `Cc1cccn2cc(C(=O)Nc3cc(Cl)cc(NS(C)(=O)=O)c3)cc12` [Example 329], the “DHX9 Biochemical Max Inhibition” value came out at 66.5% and the IC50 is 139 nM.

Consider `CS(=O)(=O)Nc1cc(Cl)cc(NC(=O)c2cc3cnccn3c2)c1` [Example 330], for which the “DHX9 Biochemical Max Inhibition” value is given as 61.9% and the IC50 came out at 88 nM.
